Source: EP2198709A1, “Method for treating resistant animal pests” (Bayer CropScience AG, priority 2008, dated 2010)

Assays:
Format in all cases: in vivo
[1] = system: Nilaparvata lugens Bayer S; experiment: Spray test on infested rice seedlings (standard screening), susceptible strain Bayer S; settings: rice seedlings sprayed, evaluation 7 days after infection
Description: (§1) Reissetzlinge wurden mit Stämmen von Nilaparvata lugens (Bayer S und Vietnam) infiziert und mit der Verbindung I-5 bzw. mit Imidacloprid besprüht. Die Auswertung erfolgte 7 Tage nach Infektion (Standard-Screening-Verfahren).

[2] = system: Nymphen von Bemisia argentifolii; experiment: Field trial on melon plants, spray, against nymphs of neonicotinoid-resistant silverleaf whiteflies (Arizona); settings: 150 g ai/ha/m CH, SL 100, Imidacloprid SC 192
Description: (§2) In Arizona (USA) wurden Melonenpflanzen, die stark mit Nymphen von bekanntermaßen Neonikotinoyl-resistenten Silberflügeligen Weißen Fliegen (Bemisia argentifolii) infiziert waren, jeweils zwei Mal im Abstand von 15 Tagen mit der Verbindung 1-5 (SL 100, 150 g ai/ha/m CH (g aktive Substanz/ha/m CH, CH = Laubwand-Höhe) bzw. mit Imidacloprid (SC 192, 150 g ai/ha/m CH) besprüht. Zu verschiedenen Zeitpunkten nach der ersten bzw. zweiten Behandlung (DAA = Tage nach 1. Behandlung, DAB = Tage nach zweiter Behandlung) wurde die Wirksamkeit (in % Abbott: Verhältnis der Anzahl Nymphen auf behandelter Pflanze / Fläche zur Anzahl Nymphen auf Kontrolle) der beiden Substanzen gegen Nymphen von Bemisia argentifolii bestimmt.

Bemisia tabaci ESP-00 = experiment: Leaf-dip bioassay, adult whiteflies, multi-resistant strain ESP-00; settings: adults; for ESP-00 LC50: multi-resistant strain ESP-00, mortality after 72 h
Description: (§3) Es wurden Versuche durchgeführt, um die überlegene Blattwirkung von Enaminocarbonylverbindungen gegen adulte Tiere eines Stamms von Bemisia tabaci zu zeigen, der bekanntermaßen resistent ist gegen Neonikotinoid-Insektizide sowie andere Insektizidklassen, einschließlich Insekten-Wachstumsregulatoren (wie Buprofezin) und Antifeedants (Substanzen, die einen Schaderreger vom Fraß abhalten) (wie Pymetrozin).
(§4) Baumwollblattscheiben (30 mm im Durchmesser) wurden für 5 sec in wässrige Lösungen technischer Insektizide, enthaltend 0,2 g/l Triton-X-100 als nicht-ionisches Benetzungsmittel, getaucht. Luftgetrocknete Blattscheiben wurden dann mit der adaxialen Seite nach unten auf ein Agarbett (12 g/l) in einer kleinen Petrischale (40 mm im Durchmesser) gelegt. Adulte Weiße Fliegen wurden mittels eines Vakuum-getriebenen Aspirators aus Aufzuchtkäfigen eingesammelt und 20 adulte Tiere wurden nach kurzer CO2-Narkose auf die Blattscheiben gelegt. Anschließend wurde jede Petrischale mit einem belüfteten Deckel verschlossen und umgedreht aufbewahrt. Nach 72 h wurde die Mortalität der Weißen Fliegen bestimmt. Jedes Insektizid wurde mindestens dreifach mit 2-oder 3-fach Bestimmungen pro Konzentration getestet.
(§5) LC50-Werte wurden aus Probit-Regressionen unter Verwendung des Computerprogramms POLO-PC 2 (LeOra Software, Berkeley, USA) berechnet.
(§6) Tabelle 1. Log-Dosis Probit Mortalitätsdaten für verschiedene Klassen von Insektiziden erhalten aus Blatt-Tauch-Bioassays gegen adulte Tiere zweier Bemisia tabaci Stämme, SUD-S und ESP-00, die bekanntermaßen Insektizid-empfindlich (SUD-S) bzw. multiresistent (ESP-00) sind (Stumpf und Nauen, 2003). Mortalität wurde nach 72 h bestimmt, mit Ausnahme von Buprofezin (10-12 d).

[3] = system: Trialeurodes vaporariorum; experiment: Trial on poinsettia, spray, against neonicotinoid-resistant greenhouse whiteflies (Netherlands); settings: 150 g ai/ha/m CH, SL 100, Imidacloprid SL 200
Description: In Zwaagdiyk (Niederlande) wurden Weihnachtssterne, die stark mit bekanntermaßen Neonikotinoyl-resistenten Gewächshaus-Weißen Fliegen (Trialeurodes vaporariorum) infiziert waren, jeweils zwei Mal im Abstand von 7 Tagen mit der Verbindung 1-5 (SL 100, 150 g ai/ha/m CH (g aktive Substanz/ha/m CH, CH = Laubwand-Höhe) bzw. mit Imidacloprid (SL 200, 150 g ai/ha/m CH) besprüht. Zu verschiedenen Zeitpunkten nach der ersten bzw. zweiten Behandlung (DAA = Tage nach 1. Behandlung, DAB = Tage nach zweiter Behandlung) wurde die Wirksamkeit (in % Abbott: Verhältnis der Anzahl Tiere auf behandelter Pflanze / Fläche zur Anzahl Tiere auf Kontrolle) der beiden Substanzen gegen Trialeurodes vaporariorum bestimmt.

[4] = system: Eier von Bemisia argentifolii; experiment: Field trial on melon plants, spray, against eggs of neonicotinoid-resistant silverleaf whiteflies (Arizona); settings: 150 g ai/ha/m CH, I-5 SL 100, Imidacloprid SC 192
Description: as §2, with “mit Eiern” for “mit Nymphen”, “Verbindung I-5” for “Verbindung 1-5”, “Anzahl Eier” for “Anzahl Nymphen”, “gegen Eier” for “gegen Nymphen”

[5] = system: Nilaparvata lugens Vietnam; experiment: Spray test on infested rice seedlings (standard screening), resistant strain Vietnam; settings: rice seedlings sprayed, evaluation 7 days after infection
Description: as §1

Bemisia tabaci SUD-S = experiment: Leaf-dip bioassay, adult whiteflies, insecticide-susceptible strain SUD-S; settings: adults, mortality after 72 h
Description: as §3, §4, §5, §6

Nilaparvata lugens = experiment: Field trial on rice plants, spray, against neonicotinoid-resistant brown planthoppers (Thailand); settings: 50 g ai/ha/m CH, both SL 100
Description: In Banglane (Thailand) wurden Reispflanzen, die stark mit bekanntermaßen Neonikotinoyl-resistenten Braunrückigen Reiszikaden (Nilaparvata lugens) infiziert waren, jeweils zwei Mal im Abstand von 14 Tagen mit der Verbindung 1-5 (SL 100, 50 g ai/ha/m CH (g aktive Substanz/ha/m CH, CH = Laubwand-Höhe) bzw. mit Imidacloprid (SL 100, 50 g ai/ha/m CH) besprüht. Zu verschiedenen Zeitpunkten nach der ersten bzw. zweiten Behandlung (DAA = Tage nach 1. Behandlung, DAB = Tage nach zweiter Behandlung) wurde die Wirksamkeit (in % Abbott: Verhältnis der Anzahl Tier auf behandelter Pflanze / Fläche zur Anzahl Tiere auf Kontrolle) der beiden Substanzen gegen Nilaparvata lugens bestimmt.

[6] = 7 DAB (days after 2nd treatment), sprayed 2x
[7] = 8 DAA (days after 1st treatment), sprayed

Compound	Bayer S (empfindlicher Stamm) LC50 [1]	Effizienz ([2]; 7 DAB, sprayed 2x)	Effizienz ([2]; 8 DAA, sprayed)	Effizienz ([2]; 13 DAB, sprayed 2x)	Effizienz ([2]; 14 DAA, sprayed)	ESP-00 LC50 (Bemisia tabaci ESP-00)	Effizienz ([3]; 7 DAA, sprayed)	Effizienz ([3]; 7 DAB, sprayed 2x)	Effizienz ([3]; 14 DAB, sprayed 2x)	Effizienz ([3]; 21 DAB, sprayed 2x)	Effizienz ([3]; 29 DAB, sprayed 2x)	Effizienz [4, 6]	Effizienz [4, 7]	Effizienz ([4]; 13 DAB, sprayed 2x)	Effizienz ([4]; 14 DAA, sprayed)	Vietnam (resistenter Stamm) LC50 [5]	SUD-S LC50 (Bemisia tabaci SUD-S)	Effizienz (Nilaparvata lugens; 1 DAA, sprayed)	Effizienz (Nilaparvata lugens; 3 DAA, sprayed)	Effizienz (Nilaparvata lugens; 5 DAA, sprayed)	also measured
O=[N+]([O-])NC1=NCCN1Cc1ccc(Cl)nc1 [Imidacloprid]	0,0049 g/ha	36,1 % Abbott	53,1 % Abbott	31,9 % Abbott	47,6 % Abbott	300 ppm	11,4 % Abbott	9,9 % Abbott	0 % Abbott	3,7 % Abbott	18,6 % Abbott	30,2 % Abbott	66,1 % Abbott	0 % Abbott	69,5 % Abbott	13 g/ha	0.82 ppm	19,6 % Abbott	24,9 % Abbott	36,5 % Abbott	Effizienz (Nilaparvata lugens; 7 DAA, sprayed): 26,6 % Abbott; Effizienz (Nilaparvata lugens; 7 DAB, sprayed 2x): 19,8 % Abbott; Effizienz (Nilaparvata lugens; 14 DAA, sprayed): 17,8 % Abbott; Effizienz (Nilaparvata lugens; 14 DAB, sprayed 2x): 26,4 % Abbott
O=C1C=C(N(Cc2ccc(Cl)nc2)CC(F)F)CO1 [Verbindung I-5, 4-{[(6-Chlorpyrid-3-yl)methyl](2,2-difluorethyl)amino}furan-2(5H)-on]	0,36 g/ha	55,4 % Abbott	86,8 % Abbott	80,9 % Abbott	84,6 % Abbott	36 ppm	23 % Abbott	50,9 % Abbott	39,1 % Abbott	62,2 % Abbott	50,9 % Abbott	81,6 % Abbott	97,6 % Abbott	69 % Abbott	72,9 % Abbott	3,2 g/ha	6.7 ppm	19 % Abbott	39 % Abbott	66,8 % Abbott	Resistenz / Kreuz-resistenz von adulten B. tabaci Tieren des Stamms ESP-00 im Vergleich zu SUD-S (Bemisia tabaci ESP-00; leaf-dip, result in words): nur geringfügige Kreuz-resistenz; Effizienz (Nilaparvata lugens; 7 DAA, sprayed): 70,3 % Abbott; Effizienz (Nilaparvata lugens; 7 DAB, sprayed 2x): 69,5 % Abbott; Effizienz (Nilaparvata lugens; 14 DAA, sprayed): 65,7 % Abbott; Effizienz (Nilaparvata lugens; 14 DAB, sprayed 2x): 55,9 % Abbott
